# Measured values as given in ChEMBL document CHEMBL1201862, “PubChem BioAssay data set” (2004).
# Where “and” joins values, the source holds several entries; their conditions need not be identical. Equal values may be shown once.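 Dose response: 5 concentrations. Exposure: 48 h. Format: 96-well plates. Endpoint: linear interpolation; highest concentration if not reached. The concentration for 50% growth inhibition is given as GI50.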 Calls of active or inactive are those of the source. No stated cut-off is given here; in the data, active = GI50 up to about 1.1 µM and inactive = higher.
# Columns and labels:
# Assay in all cases: NCI anticancer screen, dose series, 48 h
# 786-0 = system: 786-0
# A549 = system: A549
# ACHN = system: ACHN
# CAKI-1 = system: CAKI-1
# CCRF-CEM = system: CCRF-CEM
# COLO 205 = system: COLO 205
# DLD-1 = system: DLD-1
# DMS-114 = system: DMS-114
# DMS-273 = system: DMS-273
# EKVX = system: EKVX
# HCC 2998 = system: HCC 2998
# HCT-116 = system: HCT-116
# HCT-15 = system: HCT-15
# HOP-62 = system: HOP-62
# HOP-92 = system: HOP-92
# HT-29 = system: HT-29
# IGROV-1 = system: IGROV-1
# K562 = system: K562
# KM-20L2 = system: KM-20L2
# KM12 = system: KM12
# LOX IMVI = system: LOX IMVI
# LXFL 529 = system: LXFL 529
# M14 = system: M14
# M19-MEL = system: M19-MEL
# MOLT-4 = system: MOLT-4
# Malme-3M = system: Malme-3M
# NCI-H226 = system: NCI-H226
# NCI-H23 = system: NCI-H23
# NCI-H460 = system: NCI-H460
# NCI-H522 = system: NCI-H522
# OVCAR-3 = system: OVCAR-3
# OVCAR-4 = system: OVCAR-4
# OVCAR-5 = system: OVCAR-5
# OVCAR-8 = system: OVCAR-8
# RPMI-8226 = system: RPMI-8226
# RXF 631 = system: RXF 631
# SF-268 = system: SF-268
# SF-295 = system: SF-295
# SF-539 = system: SF-539
# SK-MEL-28 = system: SK-MEL-28
# SK-MEL-2 = system: SK-MEL-2
# SK-MEL-5 = system: SK-MEL-5
# SK-OV-3 = system: SK-OV-3
# SN12C = system: SN12C
# SNB-19 = system: SNB-19
# SNB-75 = system: SNB-75
# SNB-78 = system: SNB-78
# SR = system: SR
# SW-620 = system: SW-620
# TK-10 = system: TK-10
# U-251 = system: U-251
# UACC-62 = system: UACC-62
# UO-31 = system: UO-31
# XF498 = system: XF498
# A498 = system: A498
# BT-549 = system: BT-549
# DU-145 = system: DU-145
# MDA-MB-435 = system: MDA-MB-435
# MDA-N = system: MDA-N
# NCI/ADR-RES = system: NCI/ADR-RES
# T47D = system: T47D
# HL-60 = system: HL-60
# RXF 393 = system: RXF 393
# UACC-257 = system: UACC-257
structure (smiles),measurement,setting,value
O=C1c2ccccc2C(=O)c2nc3ccc(Cl)cc3cc21,GI50,786-0,> 100 µM (inactive)
same,GI50,A549,> 100 µM (inactive)
same,GI50,ACHN,> 100 µM (inactive)
same,GI50,CAKI-1,> 100 µM (inactive)
same,GI50,CCRF-CEM,> 100 µM (inactive)
same,GI50,COLO 205,> 100 µM (inactive)
same,GI50,DLD-1,> 100 µM (inactive)
same,GI50,DMS-114,> 100 µM (inactive)
same,GI50,DMS-273,> 100 µM (inactive)
same,GI50,EKVX,> 100 µM (inactive)
same,GI50,HCC 2998,> 100 µM (inactive)
same,GI50,HCT-116,> 100 µM (inactive)
same,GI50,HCT-15,> 100 µM
same,GI50,HOP-62,> 100 µM (inactive)
same,GI50,HOP-92,> 100 µM (inactive)
same,GI50,HT-29,> 100 µM (inactive)
same,GI50,IGROV-1,> 100 µM (inactive)
same,GI50,K562,> 100 µM (inactive)
same,GI50,KM-20L2,> 100 µM (inactive)
same,GI50,KM12,> 100 µM (inactive)
same,GI50,LOX IMVI,> 100 µM (inactive)
same,GI50,LXFL 529,> 100 µM (inactive)
same,GI50,M14,> 100 µM (inactive)
same,GI50,M19-MEL,> 100 µM (inactive)
same,GI50,MOLT-4,> 100 µM (inactive)
same,GI50,Malme-3M,> 100 µM (inactive)
same,GI50,NCI-H226,> 100 µM (inactive)
same,GI50,NCI-H23,> 100 µM (inactive)
same,GI50,NCI-H460,> 100 µM (inactive)
same,GI50,NCI-H522,> 100 µM (inactive)
same,GI50,OVCAR-3,> 100 µM (inactive)
same,GI50,OVCAR-4,> 100 µM (inactive)
same,GI50,OVCAR-5,> 100 µM (inactive)
same,GI50,OVCAR-8,> 100 µM (inactive)
same,GI50,RPMI-8226,> 100 µM (inactive)
same,GI50,RXF 631,> 100 µM (inactive)
same,GI50,SF-268,> 100 µM (inactive)
same,GI50,SF-295,52.5 µM (inactive)
same,GI50,SF-539,> 100 µM (inactive)
same,GI50,SK-MEL-28,> 100 µM (inactive)
same,GI50,SK-MEL-2,> 100 µM (inactive)
same,GI50,SK-MEL-5,> 100 µM (inactive)
same,GI50,SK-OV-3,> 100 µM (inactive)
same,GI50,SN12C,> 100 µM (inactive)
same,GI50,SNB-19,> 100 µM (inactive)
same,GI50,SNB-75,> 100 µM (inactive)
same,GI50,SNB-78,> 100 µM (inactive)
same,GI50,SR,> 100 µM (inactive)
same,GI50,SW-620,> 100 µM (inactive)
same,GI50,TK-10,> 100 µM (inactive)
same,GI50,U-251,> 100 µM (inactive)
same,GI50,UACC-62,> 100 µM (inactive)
same,GI50,UO-31,> 100 µM (inactive)
same,GI50,XF498,> 100 µM (inactive)
O=C1C(CN(Cc2ccccc2)Cc2ccccc2)CCCC1CN(Cc1ccccc1)Cc1ccccc1 (stereo not given),GI50,A498,> 78.9 µM (inactive) and 41.5 µM (inactive)
same,GI50,A549,> 54.5 µM (inactive)
same,GI50,BT-549,> 100 µM (inactive) and > 79.8 µM (inactive)
same,GI50,DU-145,> 100 µM (inactive)
same,GI50,HCC 2998,> 53.2 µM (inactive) and > 69.7 µM (inactive)
same,GI50,HOP-62,> 62.1 µM (inactive)
same,GI50,HOP-92,16.7 µM (inactive) and 27.3 µM (inactive)
same,GI50,IGROV-1,69.5 µM (inactive) and > 45.7 µM (inactive)
same,GI50,MDA-MB-435,> 100 µM (inactive) and > 92.3 µM (inactive)
same,GI50,MDA-N,> 76 µM (inactive)
same,GI50,NCI-H226,> 68.7 µM (inactive) and 52.1 µM (inactive)
same,GI50,NCI-H460,> 87.3 µM (inactive) and 43.9 µM (inactive)
same,GI50,NCI/ADR-RES,> 100 µM (inactive) and > 89.1 µM (inactive)
same,GI50,OVCAR-5,34.8 µM (inactive) and > 65.3 µM (inactive)
same,GI50,RXF 631,> 100 µM (inactive)
same,GI50,SF-295,44.9 µM (inactive) and 35.9 µM (inactive)
same,GI50,SK-MEL-5,> 42.5 µM (inactive) and 66.8 µM (inactive)
same,GI50,SK-OV-3,> 61.1 µM (inactive) and 44.5 µM (inactive)
same,GI50,SNB-19,> 57 µM (inactive)
same,GI50,T47D,> 100 µM (inactive)
same,GI50,XF498,15.1 µM (inactive)
O=C(NC1CCCCC1)NC12CC3CC(CC(F)(C3)C1)C2,GI50,786-0,> 100 µM (inactive)
same,GI50,A498,> 100 µM (inactive)
same,GI50,A549,> 100 µM (inactive)
same,GI50,ACHN,> 100 µM (inactive)
same,GI50,CCRF-CEM,> 100 µM (inactive)
same,GI50,COLO 205,> 100 µM (inactive)
same,GI50,DLD-1,> 100 µM (inactive)
same,GI50,DMS-114,> 100 µM (inactive)
same,GI50,DMS-273,> 100 µM (inactive)
same,GI50,EKVX,57.7 µM (inactive)
same,GI50,HCC 2998,> 100 µM (inactive)
same,GI50,HCT-116,> 100 µM (inactive)
same,GI50,HL-60,> 100 µM (inactive)
same,GI50,HOP-62,> 100 µM (inactive)
same,GI50,HOP-92,54.5 µM (inactive)
same,GI50,HT-29,> 100 µM (inactive)
same,GI50,IGROV-1,> 100 µM (inactive)
same,GI50,K562,> 100 µM (inactive)
same,GI50,KM-20L2,> 100 µM (inactive)
same,GI50,KM12,> 100 µM (inactive)
same,GI50,LOX IMVI,> 100 µM (inactive)
same,GI50,LXFL 529,> 100 µM (inactive)
same,GI50,M14,> 100 µM (inactive)
same,GI50,M19-MEL,> 100 µM (inactive)
same,GI50,MOLT-4,> 100 µM (inactive)
same,GI50,Malme-3M,> 100 µM (inactive)
same,GI50,NCI-H23,> 100 µM (inactive)
same,GI50,NCI-H460,> 100 µM (inactive)
same,GI50,NCI-H522,> 100 µM (inactive)
same,GI50,OVCAR-3,> 100 µM (inactive)
same,GI50,OVCAR-5,> 100 µM (inactive)
same,GI50,OVCAR-8,> 100 µM (inactive)
same,GI50,RPMI-8226,> 100 µM (inactive)
same,GI50,RXF 393,> 100 µM (inactive)
same,GI50,RXF 631,> 100 µM (inactive)
same,GI50,SF-539,> 100 µM (inactive)
same,GI50,SK-MEL-28,> 100 µM (inactive)
same,GI50,SK-MEL-2,> 100 µM (inactive)
same,GI50,SK-MEL-5,> 100 µM (inactive)
same,GI50,SK-OV-3,> 100 µM (inactive)
same,GI50,SNB-19,> 100 µM (inactive)
same,GI50,SNB-75,40.4 µM (inactive)
same,GI50,SNB-78,> 100 µM (inactive)
same,GI50,SW-620,> 100 µM (inactive)
same,GI50,TK-10,85.3 µM (inactive)
same,GI50,U-251,> 100 µM (inactive)
same,GI50,UACC-257,> 100 µM (inactive)
same,GI50,UACC-62,> 100 µM (inactive)
same,GI50,UO-31,55.3 µM (inactive)
same,GI50,XF498,> 100 µM (inactive)
